In patent US4291021A, “Novel macrolide antibiotics and preparation thereof” (Toyo Jozo Company, Ltd., priority 1978, dated 1981):

Key:
[1] = acidic or basic nature; assay type: physicochemical
[2] = test system: Streptococcus pyogenes (N.Y.5); experiment: antibacterial spectrum, agar dilution method; assay type: cell-based; conditions: S. pyogenes N.Y.5, 10^8 x1
[3] = test system: Escherichia coli (NIHJ-JC2); experiment: antibacterial spectrum, agar dilution method; assay type: cell-based; conditions: E. coli NIHJ-JC2, 10^8 x1
[4] = test system: Staphylococcus aureus (MS 353); experiment: antibacterial spectrum, agar dilution method; assay type: cell-based; conditions: S. aureus MS 353, 10^8 x1
[5] = solubility; assay type: physicochemical
[6] = test system: Sarcina lutea (ATCC 9341); experiment: antibacterial spectrum, agar dilution method; assay type: cell-based; conditions: 10^8 x1
[7] = test system: Shigella sonney (E 33); experiment: antibacterial spectrum, agar dilution method; assay type: cell-based; conditions: 10^8 x1
[8] = test system: Klebsiella pneumoniae (ATCC 10031); experiment: antibacterial spectrum, agar dilution method; assay type: cell-based; conditions: 10^8 x1
[9] = test system: Escherichia coli (B); experiment: antibacterial spectrum, agar dilution method; assay type: cell-based; conditions: E. coli B, 10^8 x1
[10] = test system: Salmonella enteritidis gertner; experiment: antibacterial spectrum, agar dilution method; assay type: cell-based; conditions: 10^8 x1
[11] = test system: Mycoplasma synoviae; experiment: anti-mycoplasmal spectrum, agar dilution method; assay type: cell-based; conditions: 10^8 x1
[12] = test system: Staphylococcus aureus (0119); experiment: antibacterial spectrum, agar dilution method; assay type: cell-based; conditions: S. aureus 0119, 10^8 x1
[13] = test system: Micrococcus flavus (ATCC 10240); experiment: antibacterial spectrum, agar dilution method; assay type: cell-based; conditions: 10^8 x1
[14] = test system: Streptococcus faecalis (1501); experiment: antibacterial spectrum, agar dilution method; assay type: cell-based; conditions: S. faecalis 1501, 10^8 x1
[15] = test system: Staphylococcus aureus (ATCC 6538 P); experiment: antibacterial spectrum, agar dilution method; assay type: cell-based; conditions: S. aureus ATCC 6538 P, 10^8 x1
[16] = test system: Staphylococcus epidermidis (s.p.-al-l); experiment: antibacterial spectrum, agar dilution method; assay type: cell-based; conditions: 10^8 x1
[17] = test system: Shigella flexneri type 3a; experiment: antibacterial spectrum, agar dilution method; assay type: cell-based; conditions: 10^8 x1
[18] = test system: Proteus vulgaris (OX19); experiment: antibacterial spectrum, agar dilution method; assay type: cell-based; conditions: 10^8 x1
[19] = test system: Salmonella typhosa (E 901); experiment: antibacterial spectrum, agar dilution method; assay type: cell-based; conditions: 10^8 x1
[20] = test system: Streptococcus agalactiae (1020); experiment: antibacterial spectrum, agar dilution method; assay type: cell-based; conditions: S. agalactiae 1020, 10^8 x1
[21] = test system: Staphylococcus aureus (MS 353 C36); experiment: antibacterial spectrum, agar dilution method; assay type: cell-based; conditions: S. aureus MS 353 C36, 10^8 x1
[22] = test system: Staphylococcus aureus (MS 353 AO); experiment: antibacterial spectrum, agar dilution method; assay type: cell-based; conditions: S. aureus MS 353 AO, 10^8 x1
[23] = test system: Corynebacterium diphtheriae (P.W.8); experiment: antibacterial spectrum, agar dilution method; assay type: cell-based; conditions: 10^8 x1
[24] = test system: Pseudomonas aeruginosa (IAM 1095); experiment: antibacterial spectrum, agar dilution method; assay type: cell-based; conditions: 10^8 x1
[25] = test system: Mycoplasma gallisepticum; experiment: anti-mycoplasmal spectrum, agar dilution method; assay type: cell-based; conditions: 10^8 x1
[26] = test system: Bacillus subtilis (ATCC 6633); experiment: antibacterial spectrum, agar dilution method; assay type: cell-based; conditions: 10^8 x1
[27] = test system: Staphylococcus aureus (0116); experiment: antibacterial spectrum, agar dilution method; assay type: cell-based; conditions: S. aureus 0116, 10^8 x1
[28] = test system: Serratia marcescence; experiment: antibacterial spectrum, agar dilution method; assay type: cell-based; conditions: 10^8 x1
[29] = test system: Staphylococcus aureus (0127); experiment: antibacterial spectrum, agar dilution method; assay type: cell-based; conditions: S. aureus 0127, 10^8 x1
[30] = test system: Streptococcus pyogenes (1022); experiment: antibacterial spectrum, agar dilution method; assay type: cell-based; conditions: S. pyogenes 1022, 10^8 x1

Question: Which “Acidic or basic nature” value [1] does the source give for `CC[C@H]1OC(=O)/C=C/[C@H](C)[C@@H](O[C@@H]2O[C@H](C)C[C@H](N(C)C)[C@H]2O)[C@@H](C)C[C@@H](C)C(=O)/C=C/[C@@H]2O[C@H]2[C@]1(O)CO[C@@H]1O[C@H](C)[C@@H](O)[C@@H](OC)[C@H]1OC` [A 11725 II] here?
Answer: Basic

Question: And the “Minimum growth inhibitory concentration” value [2]?
Answer: ≤ 0.05 µg/mL

Question: And the “Minimum growth inhibitory concentration” value [3]?
Answer: > 100 µg/mL

Question: And the “Minimum growth inhibitory concentration” value [4]?
Answer: 0.2 µg/mL

Question: What about the “Solubility compared with A 11725 I” value ([5]; similar to A 11725 I) of the same compound?
Answer: Similar

Question: What about the “Minimum growth inhibitory concentration” value [6] of the same compound?
Answer: ≤ 0.05 µg/mL

Question: What about the “Minimum growth inhibitory concentration” value [7] of the same compound?
Answer: > 100 µg/mL

Question: What about the “Minimum growth inhibitory concentration” value [8] of the same compound?
Answer: 25 µg/mL

Question: What about the “Minimum growth inhibitory concentration” value [9] of the same compound?
Answer: 25 µg/mL

Question: And the “Minimum growth inhibitory concentration” value [10]?
Answer: > 100 µg/mL

Question: And the “Minimum growth inhibitory concentration” value [11]?
Answer: 0.8 µg/mL

Question: What about the “Minimum growth inhibitory concentration” value [12] of the same compound?
Answer: > 100 µg/mL

Question: What about the “Minimum growth inhibitory concentration” value [13] of the same compound?
Answer: 0.2 µg/mL

Question: What about the “Minimum growth inhibitory concentration” value [14] of the same compound?
Answer: > 100 µg/mL

Question: And the “Minimum growth inhibitory concentration” value [15]?
Answer: 0.2 µg/mL

Question: What about the “Minimum growth inhibitory concentration” value [16] of the same compound?
Answer: 0.1 µg/mL

Question: What about the “Minimum growth inhibitory concentration” value [17] of the same compound?
Answer: 50 µg/mL

Question: What about the “Minimum growth inhibitory concentration” value [18] of the same compound?
Answer: 50 µg/mL

Question: What about the “Minimum growth inhibitory concentration” value [19] of the same compound?
Answer: > 100 µg/mL

Question: What about the “Minimum growth inhibitory concentration” value [20] of the same compound?
Answer: 6.3 µg/mL

Question: What about the “Minimum growth inhibitory concentration” value [21] of the same compound?
Answer: 0.1 µg/mL

Question: And the “Minimum growth inhibitory concentration” value [22]?
Answer: > 100 µg/mL

Question: And the “Minimum growth inhibitory concentration” value [23]?
Answer: 0.4 µg/mL

Question: What about the “Minimum growth inhibitory concentration” value [24] of the same compound?
Answer: > 100 µg/mL

Question: What about the “Minimum growth inhibitory concentration” value [25] of the same compound?
Answer: 0.03 µg/mL

Question: What about the “Minimum growth inhibitory concentration” value [26] of the same compound?
Answer: 0.4 µg/mL

Question: What about the “Minimum growth inhibitory concentration” value [27] of the same compound?
Answer: > 100 µg/mL

Question: And the “Minimum growth inhibitory concentration” value [28]?
Answer: > 100 µg/mL

Question: And the “Minimum growth inhibitory concentration” value [29]?
Answer: > 100 µg/mL

Question: And the “Minimum growth inhibitory concentration” value [30]?
Answer: > 100 µg/mL

Question: What does the source list for `CC[C@H]1OC(=O)/C=C/[C@H](C)[C@@H](O[C@@H]2O[C@H](C)C[C@H](N(C)C)[C@H]2O)[C@@H](C)C[C@@H](C)C(=O)/C=C/C2OC2[C@@H]1CO[C@@H]1O[C@H](C)[C@@H](O)[C@@H](OC)[C@H]1OC` (stereo partly drawn) [A 11725 I]?
Answer: Acidic or basic nature [1]: Basic; Minimum growth inhibitory concentration [2]: ≤ 0.05 µg/mL; Minimum growth inhibitory concentration [3]: > 100 µg/mL; Minimum growth inhibitory concentration [4]: 0.2 µg/mL; Solubility in acidic water and organic solvents ([5]; acidic water, methanol, acetone, ethyl acetate, benzene): Soluble; Minimum growth inhibitory concentration [6]: ≤ 0.05 µg/mL; Minimum growth inhibitory concentration [7]: > 100 µg/mL; Minimum growth inhibitory concentration [8]: 25 µg/mL; Minimum growth inhibitory concentration [9]: 100 µg/mL; Minimum growth inhibitory concentration [10]: > 100 µg/mL; Minimum growth inhibitory concentration [11]: 0.03 µg/mL; Minimum growth inhibitory concentration [12]: > 100 µg/mL; Minimum growth inhibitory concentration [13]: ≤ 0.05 µg/mL; Minimum growth inhibitory concentration [14]: > 100 µg/mL; Minimum growth inhibitory concentration [15]: 0.2 µg/mL; Minimum growth inhibitory concentration [16]: 0.1 µg/mL; Minimum growth inhibitory concentration [17]: 100 µg/mL; Minimum growth inhibitory concentration [18]: 100 µg/mL; Minimum growth inhibitory concentration [19]: > 100 µg/mL; Minimum growth inhibitory concentration [20]: 12.5 µg/mL; Minimum growth inhibitory concentration [21]: ≤ 0.05 µg/mL; Minimum growth inhibitory concentration [22]: > 100 µg/mL; Minimum growth inhibitory concentration [23]: 0.4 µg/mL; Minimum growth inhibitory concentration [24]: > 100 µg/mL; Minimum growth inhibitory concentration [25]: 0.006 µg/mL; Minimum growth inhibitory concentration [26]: 0.4 µg/mL; Minimum growth inhibitory concentration [27]: > 100 µg/mL; Minimum growth inhibitory concentration [28]: > 100 µg/mL; Minimum growth inhibitory concentration [29]: > 100 µg/mL; Minimum growth inhibitory concentration [30]: > 100 µg/mL
